Results as given in article PMC8146789, “20-Hydroxyecdysone, from Plant Extracts to Clinical Use: Therapeutic Potential for the Treatment of Neuromuscular, Cardio-Metabolic and Respiratory Diseases” (Biomedicines, 2021).
Where two headings read alike, the source gives them in different places.

Legend:
[1] = repeated dose toxicity study (39-week); settings: dog, in vivo; dogs, 39-week repeated dose; Biophytis, unpublished data; read-out: No Observed Adverse Effect Level (NOAEL)
Text: (§1) More recently, a purified to pharmaceutical grade 20E (≥97% 20E purity) was used as a drug candidate in preclinical regulatory studies including safety pharmacology, genotoxicity and repeated toxicology in rodents (rats) and non-rodents (dog).

[2] = genotoxicity (preclinical regulatory studies); settings: Biophytis, unpublished data
Text: as §1

C2C12 myotubes = test system: C2C12 myotubes; parameters: method as in PMID 24974955; settings: 20E 1 μM; ref [54]; cited from earlier work
ERα = test system: ERα; parameters: method as in PMID 18220764; settings: cited from earlier work
[3] = test system: epididymal adipose tissue; parameters: method as in PMID 21869758; settings: mice, high-fat diet, 20E 50 mg/kg/day; ref [59]; cited from earlier work
[4] = parameters: method as in PMID 31190566; settings: high fructose fed gerbils; ref [61]; cited from earlier work
rats [5] = test system: rats; parameters: method as in ref [121] = [121]; 121. Ogawa S. Nishimoto N. Matsuda H. Pharmacology of ecdysones un vertebrates Invertebrate Endocrinology and Hormonal Heterophylly Burdette W.J. Springer Berlin, Germany 1974 341 344; settings: ref [121]; cited from earlier work
ovariectomized rats = test system: ovariectomized rats; parameters: method as in Seidlova-Wuttke et al. [57],[94]; settings: up to 500 mg/kg daily for 3 months, ref Seidlova-Wuttke et al. [57],[94]; cited from earlier work
[6] = parameters: method as in PMID 21439380, PMID 33819630; settings: mice, oral; ref [126],[127]; cited from earlier work
[7] = cited from earlier work; for dose dependence of plasma levels: increasing doses; for AUC0-t / Cmax / tmax: fasted; for AUC0-t / Cmax: n = 6, (SEM); for tmax: n = 6, (range)
[8] = parameters: method as in doi:10.1016/0924-977X(96)83007-0; settings: 7.5–10 mg/day, 1 month; ref [165]; cited from earlier work
[9] = parameters: method as in doi:10.1007/BF02234932; settings: 15 mg/day, 10 days; ref [166]; cited from earlier work
Giardiasis = test system: Giardiasis; parameters: method as in PMID 12224262; settings: 5 mg 3× or 4×/day, 10 days; ref [167]; cited from earlier work
[10] = parameters: method as in PMID 15559639; settings: hepatitis B, 5 mg b.i.d., 30 days; ref [159]; cited from earlier work
Lambliasis = test system: Lambliasis; parameters: method as in PMID 20614521; settings: 5 mg 4×/day, 10 days; ref [168]; cited from earlier work
Hymenolepiasis = test system: Hymenolepiasis; parameters: method as in PMID 22536744; settings: 5 mg 3×/day, 2 weeks; ref [169]; cited from earlier work
[11] = parameters: method as in doi:10.1055/s-0032-1320272; settings: overweight, 2 × 50 mg/day; ref [170]; cited from earlier work
[12] = parameters: method as in ref [177] = [177]; 177. Dustmukhamedova D.K.H. Kamilovz A.T. The characteristic of energy metabolism disorders and its correction in children with celiac disease Am. J. Med. Medic. Sci. 2020 10 780 783; settings: children 3–14, 2.5 mg/kg/day, 14 days; ref [177]; cited from earlier work
[13] = alcohols; cited from earlier work
mice = settings: ref Ogawa et al. [121], cited from earlier work
rats [14] = settings: long-term feeding 0.2–2 g/kg/day, ref [121]; cited from earlier work
bullfrogs = settings: up to 600 mg/kg in the lymph sinus, ref [121]; cited from earlier work
[15] = oral; ref [127],[128]; cited from earlier work
[16] = in vivo; cited from earlier work
[17] = single oral 100 mg, ref [136],[137]
[18] = single oral 350 mg, ref [136],[137]
[19] = single oral 700 mg, ref [136],[137]
[20] = single oral 1400 mg, ref [136],[137]

CC(C)(O)CC[C@@H](O)[C@](C)(O)[C@H]1CC[C@@]2(O)C3=CC(=O)[C@@H]4C[C@@H](O)[C@@H](O)C[C@]4(C)[C@H]3CC[C@]12C [20E, 2β,3β,14α,20R,22R,25-hexahydroxy-5β-cholest-7-en-6-one]
NOAEL at 39 week [1]: 1000 mg/kg
genotoxic effects [2]: no genotoxic effects
myotube diameter (C2C12 myotubes): enhanced myotube diameter
binding to nuclear receptor (ERα): negative
adipocyte diameter [3]: retains the median adipocyte diameter close to that in mice fed a low-fat diet
mass of epididymal fat pads [3]: counteracts both the increase in the mass of the fat pads
effect on adiposity [4]: efficient
sex hormonal activity, anti-inflammatory or anabolic effects (rats [5]): did not have
detrimental effects (ovariectomized rats): no stated detrimental effects
time at which 20E starts to reach the large intestine [6]: ca. 30 min
safety profile, adverse events ([7]; humans, SAD 100 to 1400 mg, MAD up to 450 mg twice a day for 14 days, ref [180]): no serious adverse events during SAD and MAD
dose dependence of plasma levels ([7]; humans, oral, ref [136],[137]): dose-related and also apparently saturable
dose dependence of plasma levels ([7]; humans, oral, ref [136],[137], listed as BIO101): increased less that dose-proportionally
bioavailability ([7]; humans, oral, ref [180]): rather low
share of the urinary excretion within 4 h ([7]; humans, single dose, ref [136],[137]): half of this was excreted within 4 h
administered 20E excreted in the urine ([7]; humans, within 12 h of a single dose, ref [136],[137]): About 2%
serum biomarkers of muscular catabolism (myoglobin, CK-MB) ([7]; older adults, after 14 days of administration (MAD), ref [180]): reduced in subjects administered the highest dose
AUC0-t [7, 17]: 767 (31.1) ng·h/mL
Cmax [7, 17]: 141 (16.6) ng/mL
tmax [7, 17]: 2.03 (1.00–3.02) h
AUC0-t [7, 18]: 1924 (40.1) ng·h/mL
Cmax [7, 18]: 317 (37.9) ng/mL
AUC0-t [7, 19]: 2578 (22.9) ng·h/mL
Cmax [7, 19]: 399 (24.7) ng/mL
tmax [7, 19]: 3.00 (2.00–4.02) h
AUC0-t [7, 20]: 4148 (15.9) ng·h/mL
Cmax [7, 20]: 710 (20.2) ng/mL
tmax [7, 20]: 3.50 (2.00–4.02) h
patients with improvement of libido and sexual activity [8]: Improvement of libido and sexual activity in 75% of patients
kidney function and microcirculation [9]: Improvement of kidney function and of microcirculation
patients with parasite elimination (Giardiasis): Parasite elimination in 68.7% of patients
liver state [10]: In case of hepatitis B, improvement of liver state
parasite elimination (Lambliasis): Therapy eliminated most parasites within 10 days
parasitological efficacy (Hymenolepiasis): 36.4%
symptoms (Hymenolepiasis): Reduction in symptoms
change in C-reactive protein [11]: −38%
change in body fat [11]: −7.6%
change in body weight [11]: −1.3%
change in total cholesterol [11]: −17%
change in triglycerides [11]: −37%
change in waist circumference [11]: −3.2%
muscle increase [11]: +2.9%
output of celiac disease study [12]: Reduction in symptoms Improvement of energy metabolism
solubility [13]: highly soluble in alcohols
LD50 (mice; i.p.-injected): 6.4 g/kg
LD50 (mice; ingested): > 9 g/kg
subacute toxicity (rats [14]): no subacute toxicity was observed
effects after administration (bullfrogs): no effects were seen
bioavailability [15]: ca. 1%
time of plasma titre maximum [16]: ca. 30 min
